Source: the supplement of paper PMC8671470

Key:
Settings in all cases: 72 h
[1] = test system: myeloid leukemia patient primary cells Pat.3; test: area under dose-response curve (viability, 1 nM-10 uM) (fraction (0-1)); higher = more sensitive
Description: (§1)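 AUC (0–1, higher = more sensitive) of the 5-point dose–response (1 nM–10 µM, 72 h, CellTiter-Glo) in primary AML/CML patient mononuclear cells. 0.030103 is the floor for inactive compounds.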

[2] = test system: myeloid leukemia patient primary cells Pat.5; test: as above
Description: as §1

[3] = test system: myeloid leukemia patient primary cells Pat.2; test: as above
Description: as §1

[4] = test system: myeloid leukemia patient primary cells Pat.11; test: as above
Description: as §1

[5] = test system: myeloid leukemia patient primary cells Pat.7; test: as above
Description: as §1

[6] = test system: myeloid leukemia patient primary cells Pat.13; test: as above
Description: as §1

[7] = test system: myeloid leukemia patient primary cells Pat.1; test: as above
Description: as §1

[8] = test system: myeloid leukemia patient primary cells Pat.15; test: as above
Description: as §1

[9] = test system: myeloid leukemia patient primary cells Pat.9; test: as above
Description: as §1

[10] = test system: myeloid leukemia patient primary cells Pat.6; test: as above
Description: as §1

[11] = test system: myeloid leukemia patient primary cells Pat.12; test: as above
Description: as §1

[12] = test system: myeloid leukemia patient primary cells Pat.8; test: as above
Description: as §1

[13] = test system: myeloid leukemia patient primary cells Pat.4; test: as above
Description: as §1

[14] = test system: myeloid leukemia patient primary cells Pat.1; test: cell viability (% survival relative to DMSO control); higher = less cytotoxic
Procedure, shortened: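 Mononuclear cells from patients with AML or CML were thawed, purified on Ficoll and placed in RPMI 1640 with 10% FBS at 10,000 cells/well on 384-well plates. The plates came pre-printed with 70 compounds at five tenfold concentrations spanning 1–10,000 nM, in duplicate, and cells were exposed for 72 h. CellTiter-Glo gave viability, scaled between DMSO wells and wells with 10 μM proteasome inhibitor. Where reported, area under the curve was obtained from log-logistic fits with four parameters using the drc and PharmacoGx R packages.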

[15] = test system: myeloid leukemia patient primary cells Pat.10; test: area under dose-response curve (viability, 1 nM-10 uM) (fraction (0-1)); higher = more sensitive
Description: as §1

Structure (SMILES)	area under dose-response curve [1]	area under dose-response curve [2]	area under dose-response curve [3]	area under dose-response curve [4]	area under dose-response curve [5]	area under dose-response curve [6]	area under dose-response curve [7]	area under dose-response curve [8]	area under dose-response curve [9]	area under dose-response curve [10]	area under dose-response curve [11]	area under dose-response curve [12]	area under dose-response curve [13]	cell viability ([14]; 1 nM) [%]	cell viability ([14]; 10 nM) [%]	cell viability ([14]; 100 nM) [%]	cell viability ([14]; 1000 nM) [%]	cell viability ([14]; 10000 nM) [%]	area under dose-response curve [15]
Sc1ncnc2nc[nH]c12 [6-mercaptopurine]	0.44	0.588	< 0.0301	< 0.0301	< 0.0301	< 0.0301	< 0.0301	< 0.0301	0.0529	< 0.0301	< 0.0301	< 0.0301	< 0.0301	> 100	95.1	92.6	84.3	93.1	–
Cc1noc2c1-c1ccccc1C(c1ccc(Cl)cc1)=N[C@H]2CC(N)=O [CPI-0610]	0.378	0.74	0.192	0.18	0.0768	0.191	0.264	0.423	0.34	–	–	–	0.423	90.3	93.9	84.9	39.1	21.7	0.458
Nc1ccn([C@@H]2O[C@H](CO)[C@@H](O)[C@@H]2O)c(=O)n1 [Cytarabine]	0.647	0.85	0.077	0.0784	0.418	0.188	–	0.109	0.719	0.0602	0.0325	0.0847	0.142	99.3	96.1	76.9	84.9	60.7	0.205
CCN(CC)CCN(Cc1ccc(-c2ccc(C(F)(F)F)cc2)cc1)C(=O)Cn1c(SCc2ccc(F)cc2)nc(=O)c2c1CCC2 [Darapladib]	0.211	0.947	0.143	0.137	0.502	0.154	0.111	0.124	0.625	0.137	0.134	0.117	0.123	79.5	83	61.6	95.4	< 0	0.104
CC12CCC(O)CC1CCC1C2CCC2(C)C(C3=CC(=O)OC3)CCC12O (stereo not drawn) [Digitoxigenin]	0.601	0.713	0.27	0.279	< 0.0301	0.324	0.388	0.357	0.658	0.26	0.208	0.391	0.373	95.1	74	63.2	21.5	13	< 0.0301
C[C@H]1O[C@@H](O[C@H]2[C@@H](O)C[C@H](O[C@H]3[C@@H](O)C[C@H](O[C@H]4CC[C@@]5(C)[C@H](CC[C@@H]6[C@@H]5C[C@@H](O)[C@]5(C)[C@@H](C7=CC(=O)OC7)CC[C@]65O)C4)O[C@@H]3C)O[C@@H]2C)C[C@H](O)[C@@H]1O [Digoxin]	0.624	0.611	0.346	0.471	< 0.0301	0.384	0.348	0.493	0.609	0.328	0.275	0.425	0.42	96.2	84.5	85.3	13.2	8.18	< 0.0301
Clc1ccc(COC(Cn2ccnc2)c2ccc(Cl)cc2Cl)cc1 (stereo not drawn) [Econazole]	0.173	0.499	< 0.0301	< 0.0301	0.202	–	0.0311	< 0.0301	0.439	0.0776	< 0.0301	< 0.0301	< 0.0301	83.3	77.2	93.6	> 100	52.8	0.277
C[C@]12O[C@H](C[C@]1(O)CO)n1c3ccccc3c3c4c(c5c6ccccc6n2c5c31)CNC4=O [Lestaurtinib]	0.363	0.929	0.232	0.235	0.191	0.23	0.654	0.533	0.813	0.096	0.125	0.211	0.622	93.5	54.2	22.3	22.1	< 0	0.124
CC(Cc1ccc(O)c(O)c1)C(C)Cc1ccc(O)c(O)c1 (stereo not drawn) [Masoprocol]	0.299	< 0.0301	–	< 0.0301	0.294	0.0768	0.075	0.111	0.3	0.15	0.0847	0.186	0.119	> 100	92.3	90.5	85.6	51.7	< 0.0301
COc1c(C)c2c(c(O)c1C/C=C(\C)CCC(=O)O)C(=O)OC2 [Mycophenolic acid]	0.0922	< 0.0301	< 0.0301	< 0.0301	< 0.0301	–	< 0.0301	< 0.0301	–	< 0.0301	< 0.0301	0.0355	0.0528	78.4	96.8	85	93.9	87.3	–
CCOC(=O)N1c2ccc(C(F)(F)F)cc2[C@@H](N(Cc2cc(C(F)(F)F)cc(C(F)(F)F)c2)C(=O)OC)C[C@H]1CC [Torcetrapib]	0.0719	–	< 0.0301	< 0.0301	0.197	0.0668	< 0.0301	< 0.0301	0.239	0.0345	< 0.0301	< 0.0301	< 0.0301	93.1	72.9	92.6	95.4	65.3	0.212
